We go through 6 compounds from US8691982B2, “Pyrazolo[1,5-a]-1,3,5-triazine derivatives, preparation thereof, and therapeutic use thereof” (Centre National de la Recherche Scientifique, priority 2009, dated 2014).

For one experiment, the target named is CDK5/p25 (Homo sapiens, UniProt Q00535). Put plainly: CDK5/p25 kinase assay. In kind it is biochemical, mammalian. As to conditions: 15 μM ATP, 30° C., histone H1 substrate. As for the experimental part: (§1) Buffer C: 60 mM β-glycerophosphate, 15 mM p-nitrophenyl phosphate, 25 mM Mops (pH 7.2), 5 mM EGTA, 15 mM MgCl2, 1 mM DTT, 1 mM sodium vanadate, 1 mM phenyl phosphate, 10 μg leupeptin/ml, 10 μg aprotinin/ml and 100 μM benzamidine.
(§2) Controls were performed with appropriate dilutions of dimethyl sulfoxide.
(§3) ATP (3000 Ci/mmol; 10 mCi/ml) in a final volume of 30 μl. After incubation for 30 minutes at 30° C., aliquotes of 25 μl of the supernatant were spotted onto Whatman P81 phosphocellulose paper filters and, 20 seconds later, the filters were washed five times (for at least five minutes each time) in a solution of 10 ml of phosphoric acid/liter of water. The wet filters were subjected to counting in the presence of an ACS scintillation fluid from Amersham. CDK2/cyclin A (human, recombinant, expressed in insect cells) was assayed as described for CDK1/cyclin B. CDK5/p25 was reconstituted by mixing equal amounts of recombinant mammalian CDK5 and p25 expressed in E. coli as a GST (glutathione-S-transferase) fusion protein and purified by affinity chromatography on glutathione-agarose (p25 is a truncated version of p35, the 35 kDa CDK5 activator). […] DYRK1A (human, recombinant, expressed in E. coli as a GST fusion protein) was purified on glutathione-agarose, assayed as described for CDK1/cyclin B with myelin basic protein (1 mg/ml) as substrate.

In experiment [1] the test system is SH-SY5Y human neuroblastoma cells. Put plainly: SH-SY5Y cell viability (MTS reduction). It counts as cell-based. As to conditions: SH-SY5Y cell line, cell viability by MTS. As for the experimental part: A Cell Titer 96® kit containing the MTS reagent was purchased from Promega (Madison, Wis., USA). The protease inhibitor cocktail came from Roche and the fetal calf serum (FCS) came from Invitrogen. The reagents not listed came from Sigma, unless otherwise indicated.
The SH-SY5Y human neuroblastoma cell line was grown in a DMEM medium with L-glutamine from Invitrogen (Cergy Pontoise, France), antibiotics and 10% by volume of FCS from Invitrogen. The general culture conditions were a 5% CO2 atmosphere and a temperature of 37° C. The culture plates and other disposable plastic tools were supplied by Corning (Corning, N.Y., USA). The treatments with the compounds of the invention were carried out on cultures in exponential growth over time, and indicated concentrations. The control experiments were carried out also using suitable dilutions of DMSO.
The cell viability was determined by measuring the reduction of 3-(4,5-dimethylthiazol-2-yl)-5-(3-carboxymethoxyphenyl)-2-(4-sulfophenyl)-2H-tetrazolium (MTS).
For orientation: Tetrazolium dyes change colour on reduction, which living cells bring about.

For the next experiment, the target named is T1, CDK2/cyclin A (Homo sapiens, UniProt P24941).
T1 construct: host or cells: insect cells
Put plainly: CDK2/cyclin A kinase assay. It counts as biochemical. To be noted: 15 μM ATP, 30° C., histone H1 substrate. As for the experimental part: as §1, §2, §3

In another experiment the target is DYRK1A (Homo sapiens, UniProt Q13627). The experiment in a line: DYRK1A kinase assay. It counts as biochemical. As to conditions: 15 μM ATP, 30° C., myelin basic protein substrate. As for the experimental part:
(§4) The blank values were subtracted and the activities calculated as μmoles of phosphate incorporated per 10 minutes of incubation. […] Controls were performed with appropriate dilutions of dimethyl sulfoxide.
as §3

The next experiment deals with CDK1/cyclin B. Put plainly: CDK1/cyclin B kinase assay. To be noted: 15 μM ATP, 30° C., histone H1 substrate. It counts as biochemical, starfish (Marthasterias glacialis). As for the experimental part:
Homogenization buffers: 60 mM β-glycerophosphate, 15 mM p-nitrophenyl phosphate, 25 mM Mops (pH 7.2), 15 mM EGTA, 15 mM MgCl2, 1 mM DTT, 1 mM sodium vanadate, 1 mM NaF, 1 mM phenyl phosphate, 10 μg leupeptin/ml, 10 μg aprotinin/ml, 10 μg soybean trypsin inhibitor/ml and 100 μM benzamidine.
as §1, §2, §3

A further experiment deals with GSK-3α/β. Put plainly: GSK-3α/β kinase assay. In kind it is biochemical, pig. As to conditions: 15 μM ATP, 30° C., buffer A, GS-1 substrate.
In experiment [2] the test system is Human chronic lymphoid leukemia (B-CLL) lymphocytes. Put plainly: B-CLL cell apoptosis (annexin V / propidium iodide, flow cytometry). As to conditions: B-CLL cells from patients. It counts as cell-based. As for the experimental part: The CLL cells were isolated from heparinized blood of untreated patients after informed consent.
The mononuclear cells were isolated by centrifugation on a Lymphosep density gradient (Biowest). […] When the percentage of CD19+/CD5+ cells was less than 90%, the B lymphocytes were enriched using the kit II for B-cell enrichment by immunomagnetic depletion of the monocytes, NK cells, granulocytes and T lymphocytes (Miltenyi Biotech).
After incubation, the B-CLL cells were harvested, washed in PBS and resuspended in 100 μl of 1× binding buffer containing FITC-conjugated annexin V and propidium iodide (Beckman Coulter Apoptosis Detection Kit). After incubation for 10 min on ice, the cells were analyzed by flow cytometry and the percentage of cells undergoing apoptosis was determined.

The next experiment concerns the target CK1δ/ε. Put plainly: CK1δ/ε kinase assay. In kind it is biochemical, pig. As to conditions: 15 μM ATP, 30° C., CK1-specific peptide substrate. On the procedure:
as §4, §3

The target of a further experiment is T2, CDK9/cyclin T (Homo sapiens, UniProt P50750).
T2 construct: host or cells: insect cells
Put plainly: CDK9/cyclin T kinase assay. In kind it is biochemical. To be noted: 15 μM ATP, 30° C., pRB fragment substrate.

The subject of a further experiment is the four kinases assayed. Put plainly: Tests on the four kinases assayed (comparison of enantiomers 34 and 31). It counts as biochemical. To be noted: 34 versus 31. As for the experimental part:
The kinases were assayed in buffer A or buffer C, at 30° C., at a final ATP concentration of 15 μM. The blank values were subtracted and the activities calculated as μmoles of phosphate incorporated per 10 minutes of incubation. The activities are usually expressed as % (percentage) of maximum activity, i.e. in the absence of inhibitors. Controls were performed with appropriate dilutions of dimethyl sulfoxide.
[…]. J. Biochem. 1997, 243, 527-536. The kinase activity was assayed in buffer C, with 1 mg of histone H1/ml, in the presence of 15 μM of [γ-^33P] ATP (3000 Ci/mmol; 10 mCi/ml) in a final volume of 30 μl. After incubation for 30 minutes at 30° C., aliquotes of 25 μl of the supernatant were spotted onto Whatman P81 phosphocellulose paper filters and, 20 seconds later, the filters were washed five times (for at least five minutes each time) in a solution of 10 ml of phosphoric acid/liter of water. The wet filters were subjected to counting in the presence of an ACS scintillation fluid from Amersham. […]

Counter-ions that a name gives are not always drawn.

Chain of CDK5/p25 (Q00535 whole entry, species assumed): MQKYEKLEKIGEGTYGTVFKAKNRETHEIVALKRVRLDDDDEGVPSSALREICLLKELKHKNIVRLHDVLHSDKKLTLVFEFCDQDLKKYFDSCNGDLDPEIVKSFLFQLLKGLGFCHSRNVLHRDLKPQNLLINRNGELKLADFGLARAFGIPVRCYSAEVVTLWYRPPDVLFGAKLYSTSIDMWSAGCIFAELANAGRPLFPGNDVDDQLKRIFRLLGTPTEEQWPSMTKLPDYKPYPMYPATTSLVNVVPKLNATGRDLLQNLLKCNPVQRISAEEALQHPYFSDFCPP
Chain of CDK5/p25 (Q15078 99-307 partner limits assumed, species assumed): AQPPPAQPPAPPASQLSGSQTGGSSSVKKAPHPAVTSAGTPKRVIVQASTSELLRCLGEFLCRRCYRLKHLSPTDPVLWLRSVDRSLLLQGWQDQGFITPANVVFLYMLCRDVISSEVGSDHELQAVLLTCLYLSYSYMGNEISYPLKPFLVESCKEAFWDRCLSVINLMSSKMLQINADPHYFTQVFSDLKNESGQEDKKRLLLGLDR
T2 sequence (P50750 whole entry): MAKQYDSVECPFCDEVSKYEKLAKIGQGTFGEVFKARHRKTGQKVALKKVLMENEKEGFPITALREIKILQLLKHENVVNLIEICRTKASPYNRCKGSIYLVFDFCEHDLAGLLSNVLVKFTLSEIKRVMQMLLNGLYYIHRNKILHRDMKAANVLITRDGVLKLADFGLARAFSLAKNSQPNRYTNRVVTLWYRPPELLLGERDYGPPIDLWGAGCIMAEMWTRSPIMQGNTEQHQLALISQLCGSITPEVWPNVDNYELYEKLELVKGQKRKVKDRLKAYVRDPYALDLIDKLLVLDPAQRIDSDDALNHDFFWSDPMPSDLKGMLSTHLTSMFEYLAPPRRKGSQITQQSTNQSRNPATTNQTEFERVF
T2 sequence (O60563 whole entry partner): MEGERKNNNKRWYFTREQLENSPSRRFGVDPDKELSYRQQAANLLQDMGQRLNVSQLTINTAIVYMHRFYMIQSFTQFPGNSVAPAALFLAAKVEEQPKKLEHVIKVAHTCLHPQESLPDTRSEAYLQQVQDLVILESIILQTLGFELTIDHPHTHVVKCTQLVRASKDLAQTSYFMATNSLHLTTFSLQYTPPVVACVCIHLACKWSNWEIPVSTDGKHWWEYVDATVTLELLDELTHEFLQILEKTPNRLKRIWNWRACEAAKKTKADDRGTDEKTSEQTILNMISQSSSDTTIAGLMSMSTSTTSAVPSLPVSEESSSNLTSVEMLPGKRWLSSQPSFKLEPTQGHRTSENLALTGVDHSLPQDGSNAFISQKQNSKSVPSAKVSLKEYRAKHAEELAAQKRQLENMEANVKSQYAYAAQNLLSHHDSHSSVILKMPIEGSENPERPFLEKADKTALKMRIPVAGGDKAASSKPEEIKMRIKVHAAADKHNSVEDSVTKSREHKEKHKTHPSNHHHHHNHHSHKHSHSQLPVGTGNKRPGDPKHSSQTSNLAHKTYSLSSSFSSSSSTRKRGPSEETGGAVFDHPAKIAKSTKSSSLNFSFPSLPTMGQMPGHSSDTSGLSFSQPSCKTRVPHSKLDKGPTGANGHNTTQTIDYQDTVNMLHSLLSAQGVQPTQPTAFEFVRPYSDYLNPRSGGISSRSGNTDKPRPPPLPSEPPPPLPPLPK

As to `CC[C@H](CO)Nc1nc(NCc2ccc(-c3ccccc3)cc2)n2ncc(C(C)C)c2n1` [Compound 1, (R)-2-(1-hydroxybut-2-ylamino)-8-isopropyl-4-(4-phenylbenzylamino)pyrazolo[1,5-a]-1,3,5-triazine], the IC50 (commonly the concentration at which inhibition is half-maximal) on CDK5/p25 is 180 nM; in [1] (Homo sapiens), 430 nM; against CDK2/cyclin A, 220 nM; against DYRK1A it was 2200 nM; against CDK1/cyclin B, 180 nM; at GSK-3α/β it was above 10000 nM. Further, the IC50 turned out to be 189 nM in [2] (Homo sapiens), 210 nM against CK1δ/ε and 93 nM against CDK9/cyclin T.

Take `CC[C@H](CO)Nc1nc(NCc2ccc(-c3ccccn3)cc2)n2ncc(C(C)C)c2n1` [Compound 2, (R)-2-(1-hydroxybut-2-ylamino)-8-isopropyl-4-[4-(pyridin-2-yl)benzylamino]pyrazolo[1,5-a]-1,3,5-triazine]: the IC50 against CDK5/p25 was found to be 40 nM; in [1] (Homo sapiens), 44 nM; against CDK2/cyclin A it was 28 nM; on DYRK1A, 1800 nM; on CDK1/cyclin B it was 23 nM; against GSK-3α/β it was 4000 nM. Also, the IC50 amounted to 32 nM in [2] (Homo sapiens), 210 nM against CK1δ/ε and 73 nM against CDK9/cyclin T.

As for `CC[C@H](CO)Nc1nc(NCc2ccc(-c3ccccn3)cc2)n2ncc(C(C)C)c2n1` [Compound 3, Fumarate salt of (R)-2-(1-hydroxybut-2-ylamino)-8-isopropyl-4-[4-(pyridin-2-yl)benzylamino]pyrazolo[1,5-a]-1,3,5-triazine], the IC50 turned out to be 18 nM against CDK5/p25; 59 nM in experiment [1]; 21 nM on CDK2/cyclin A; 2200 nM on DYRK1A; 16 nM against CDK1/cyclin B; 3100 nM on GSK-3α/β. The IC50 in experiment [2] is 32 nM; against CK1δ/ε, 130 nM; at CDK9/cyclin T, 31 nM.

Turning to `CC[C@@H](CO)Nc1nc(NCc2ccc(-c3ccccn3)cc2)n2ncc(C(C)C)c2n1` [Compound 5, Fumarate salt of (S)-2-(1-hydroxybut-2-ylamino)-8-isopropyl-4-[4-(pyridin-2-yl)benzylamino]pyrazolo[1,5-a]-1,3,5-triazine], the IC50 on CDK5/p25 is 31 nM; in [1], 80 nM; on CDK2/cyclin A, 16 nM; against DYRK1A it was 500 nM; on CDK1/cyclin B, 23 nM; against GSK-3α/β it was 3500 nM. Besides, the IC50 against CK1δ/ε was determined as 210 nM; on CDK9/cyclin T, 30 nM.

For `CCc1cnn2c(NCc3ccc(-c4ccccn4)cc3)nc(NC[C@H](O)CO)nc12` [Compound 34, (S)-2-(1,2-dihydroxypropan-3-ylamino)-8-ethyl-4-[4-(pyridin-2-yl)benzylamino]pyrazolo[1,5-a]-1,3,5-triazine], the IC50 is 10 nM on CDK5/p25; below 30 nM in experiment [1] (Homo sapiens); 420 nM against DYRK1A; 530 nM against GSK-3α/β; 100 nM against CK1δ/ε. Moreover, in the experiment on the four kinases assayed, the “activity compared with enantiomer on the four kinases assayed” value is “more active than the derivative 31”.

With `CC[C@H](CO)Nc1nc(NCc2ccccc2)n2ncc(C(C)C)c2n1` [N-&-N1, reference compound], the IC50 in experiment [1] (Homo sapiens) came to 2600 nM; on DYRK1A, 1300 nM; on CDK1/cyclin B, 90 nM; against GSK-3α/β it was 11000 nM; in experiment [2] (Homo sapiens), 1420 nM; against CK1δ/ε, 1200 nM.
